Results reported in US8962660B2 (Bristol-Myers Squibb Company, priority 2013, dated 2015).
pEC50: −log10 of the molar value.

biological target: T1, human GPR120 (Homo sapiens, UniProt Q5NUL3); test: GPR120 pERK AlphaScreen SureFire assay (human); assay type: cell-based; settings: CHO cells stably transfected with short form of human GPR120
T1 construct: expressed in transfected cells; host or cells: CHOA12 cells
T1 sequence (Q5NUL3 1-361): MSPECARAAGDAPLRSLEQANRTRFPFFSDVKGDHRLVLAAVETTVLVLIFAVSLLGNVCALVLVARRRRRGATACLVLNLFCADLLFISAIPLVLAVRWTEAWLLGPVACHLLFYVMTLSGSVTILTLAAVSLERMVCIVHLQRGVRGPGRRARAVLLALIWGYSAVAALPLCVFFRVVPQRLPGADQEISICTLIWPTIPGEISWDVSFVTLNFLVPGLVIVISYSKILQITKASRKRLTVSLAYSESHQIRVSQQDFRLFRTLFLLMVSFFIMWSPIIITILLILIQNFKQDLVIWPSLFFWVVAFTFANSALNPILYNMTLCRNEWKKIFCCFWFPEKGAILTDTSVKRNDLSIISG
Source text: GPR120 activity was monitored by measuring phosphorylation of ERK (pERK), since G protein receptors are known to activate the ERK signaling cascade either directly and/or through recruitment of arrestin that serves as a scaffold for downstream signaling events.
GPR120 pERK AlphaScreen SureFire Assay
The human and mouse GPR120-mediated intracellular phosphorylated ERK assays were established using CHOA12 cells stably transfected with the short form of human or mouse GPR120 receptor. Cells were cultured in growth medium consisting of F-12 media (Invitrogen Cat. #11765) with 5% Charcoal/Dextran FBS (Invitrogen Cat. #12676-029), 500 μg/mL GENETICIN® (Life Technologies Cat. #10131-027) and 250 μg/mL Zeocin (Invitrogen Cat. #R250-01). Cells were cryo preserved at a concentration of 2×10^7 cells/mL, in 90% Charcoal/Dextran FBS and 10% DMSO, and frozen in liquid nitrogen at a low passage number.
For the pERK assay, 2×10^7 cells/mL cryopreserved human and mouse cells were thawed rapidly in a 37° C. water bath and added to a T-225 flask containing 50 mL growth medium. The flasks were placed in a tissue culture incubator overnight (37° C., 5% CO2). The next day, cells were harvested with trypsin (Gibco Cat. #25300-054), resuspended in serum-containing growth medium and counted using a Cellometer and volume adjusted to a concentration of 0.6×10^6cells/mL. Cells were plated into 384-well clear bottom tissue culture plates (BD Cat. #353962) at 50 μL/well, for a density of 30,000 cells/well using a MULTIDROP® and incubated for 16-18 hours (overnight) at 37° C. with 5% CO2. The next day, cells were serum starved in 30 μL of F-12 media without any serum or antibiotics for 2 hours at 37° C.
Test compounds were 3-fold, 11-point serially diluted in DMSO in a REMP assay plate (Matrix Cat. #4307) by Tecan and 5 μL was transferred into an ECHO source plate (LABCYTE® Cat. #LC-0200). Cells were then stimulated with 50 nL of compound dilutions using ECHO liquid handler for 7 minutes at 37° C. Compounds ranged from final assay concentrations of 33.33 μM to 0.56 nM.
The media was then dumped and cells lysed with 20 μL of 1× Lysis buffer from the AlphaScreen SureFire Phospho-ERK 1/2 Kit (Perkin Elmer Cat. #6760617M). The lysis buffer was diluted 5-fold with water before use. The plate was agitated on a shaker for 10 minutes after which 2 μL was transferred into a 384-well white proxiplate (Perkin Elmer Cat. #6008289). The SureFire assay reagent mix was prepared by mixing 60 parts Reaction Buffer, 10 parts Activation Buffer, 1 part Donor Beads, 1 part Acceptor Beads (Perkin Elmer Cat. #TGRES10K). 3.5 μL/well of this reagent mix was manually added to the proxiplate with a multichannel pipettor. Plates were spun down at 1000 rpm for 2 minutes, followed by light-protected incubation at room temperature for 2 hours. The plates were read on the Alpha-technology compatible Envision multilabel plate reader using AlphaScreen protocol according to manufacturer's specifications. The agonist effect of compounds was expressed as 100×(average sample−average blank)/(average total−average blank) where sample is the luminescence activity in the presence of test compound, blank is equal to the luminescence activity in the presence of DMSO control and the total is signal induced by 50 μM linolenic acid as reference compound. Activation data for the test compound over a range of concentrations was plotted as percentage activation of the test compound (100%=maximum response). After correcting for background, EC50 values were determined The EC50 is defined as the concentration of test compound which produces 50% of the maximal response and was quantified using the 4 parameter logistic equation to fit the data.
The human and mouse GPR120-mediated intracellular phosphorylated ERK assays were also established using CHO-K1 cells stably transfected with the short form of human or mouse GPR120 receptor. […]

Row | pEC50 | Structure (SMILES)
1 | 6.43 | COc1ccc(Oc2cccc(C34CCC(CCOCC(=O)O)(CC3)CO4)c2)cc1 [Example 42, 2-(2-(1-(3-(4-methoxyphenoxy)phenyl)-2-oxabicyclo [2.2.2]octan-4-yl)ethoxy)acetic acid]
2 | 6.48 | O=C(O)COCCC12CCC(c3cc(F)cc(Oc4cccc(F)c4)c3)(CC1)OC2 [Example 55, 2-(2-(1-(3-Fluoro-5-(3-fluorophenoxy)phenyl)-2-oxabicyclo[2.2.2]octan-4-yl)ethoxy) acetic acid]
3 | 6.33 | COc1cc(F)cc(Oc2cc(F)cc(C34CCC(CCOCC(=O)O)(CC3)CO4)c2)c1 [Example 84, 2-(2-(1-(3-fluoro-5-(3-fluoro-5-methoxyphenoxy)phenyl)-2-oxabicyclo [2.2.2]octan-4-yl)ethoxy) acetic acid]
4 | 6.14 | Cc1ccc(Oc2cc(F)cc(C34CCC(CCOCC(=O)O)(CC3)OC4)c2)cc1F [Example 108, 2-(2-(4-(3-Fluoro-5-(3-fluoro-4-methylphenoxy)phenyl)-2-oxabicyclo[2.2.2]octan-1-yl)ethoxy)acetic acid]
5 | 6.51 | O=C(O)COCCC12CCC(c3cc(F)cc(Oc4ccc(F)cc4)c3)(CC1)OC2 [Example 85, 2-(2-(1-(3-fluoro-5-(4-fluorophenoxy)phenyl)-2-oxabicyclo[2.2.2]octan-4-yl)ethoxy)acetic acid]
6 | 5.28 | O=C(O)COCCC12CCC(c3cccc(Oc4cccc(O)c4)c3)(CC1)OC2 [Example 117, 2-(2-(1-(3-(3-Hydroxyphenoxy)phenyl)-2-oxabicyclo[2.2.2]octan-4-yl)ethoxy)acetic acid]
7 | 6.52 | O=C(O)COCCC12CCC(c3cccc(Oc4ccc(Cl)cc4)c3)(CC1)OC2 [Example 40, 2-(2-(1-(3-(4-chlorophenoxy)phenyl)-2-oxabicyclo[2.2.2]octan-4-yl)ethoxy) acetic acid]
8 | 6.51 | O=C(O)COCCC12CCC(c3cc(F)cc(Oc4ccccc4)c3)(CC1)OC2 [Example 23, 2-(2-(1-(3-Fluoro-5-phenoxyphenyl)-2-oxabicyclo[2.2.2]octan-4-yl)ethoxy)acetic acid]
9 | 6.55 | O=C(O)COCCC12CCC(c3cccc(Oc4cccc(F)c4)c3)(CC1)OC2 [Example 45, 2-(2-(1-(3-(3-fluorophenoxy)phenyl)-2-oxabicyclo[2.2.2]octan-4-yl)ethoxy) acetic acid]
10 | 5.94 | O=C(O)COCCC12CCC(c3cccc(Oc4ccc(F)c(F)c4)n3)(CC1)OC2 [Example 116, 2-(2-(1-(6-(3,4-Difluorophenoxy)pyridin-2-yl)-2-oxabicyclo[2.2.2]octan-4-yl)ethoxy) acetic acid]
11 | 6.07 | COc1cc(Oc2cc(F)cc(C34CCC(CCOCC(=O)O)(CC3)CO4)c2)ccc1F [Example 86, 2-(2-(1-(3-fluoro-5-(4-fluoro-3-methoxyphenoxy)phenyl)-2-oxabicyclo [2.2.2]octan-4-yl)ethoxy) acetic acid]
12 | 6.40 | O=C(O)COCCC12CCC(c3cccc(Oc4ccc(F)c(F)c4)c3)(CC1)OC2 [Example 75, 2-(2-(1-(3-(3,4-difluoro-phenoxy)phenyl)-2-oxabicyclo[2.2.2]octan-4-yl)ethoxy)acetic acid]

Continued, compound first:

Row | Structure (SMILES) | pEC50
13 | O=C(O)[C@@H]1C[C@H]1CCC12CCC(c3cc(F)cc(Oc4cccc(F)c4)c3)(CC1)OC2 (single isomer, unassigned) [Example 64, 2-(2-(1-(3-Fluoro-5-(3-fluorophenoxy)phenyl)-2-oxabicyclo[2.2.2]octan-4-yl)ethyl) cyclopropanecarboxylic acid] | 6.59
14 | O=C(O)CNC(=O)CC12CCC(c3cccc(Oc4ccccc4)c3)(CC1)OC2 [Example 27, 2-(2-(1-(3-Phenoxyphenyl)-2-oxabicyclo[2.2.2]octan-4-yl)acetamido)acetic acid] | 5.30
15 | O=C(O)COCCC12CCC(c3cccc(Oc4ccccc4)c3)(CC1)CO2 [Example 31, 2-(2-(4-(3-Phenoxyphenyl)-2-oxabicyclo[2.2.2]octan-1-yl)ethoxy)acetic acid] | 6.55
16 | Cc1cc(Oc2cccc(C34CCC(CCOCC(=O)O)(CC3)OC4)c2)ccc1F [Example 103] | 6.27
17 | O=C(O)COCCC12CCC(c3cccc(OC4CCCCC4)c3)(CC1)OC2 [Example 8, 2-(2-(1-(3-(Cyclohexyloxy)phenyl)-2-oxabicyclo[2.2.2]octan-4-yl)ethoxy)acetic acid] | 5.98
18 | O=C(O)C1CC1CCC12CCC(c3cccc(Oc4ccccc4)c3)(CC1)OC2 (racemic) [Example 13, trans-2-(2-(1-(3-Phenoxyphenyl)-2-oxabicyclo[2.2.2]octan-4-yl)ethyl)cyclopropanecarboxylic acid] | 6.46
19 | O=C(O)C1CC1COCC12CCC(c3cccc(Oc4ccccc4)c3)(CC1)OC2 (stereo not drawn) [Example 97, Trans-2-(((1-(3-phenoxyphenyl)-2-oxabicyclo[2.2.2]octan-4-yl)methoxy)methyl) cyclopropane carboxylic acid] | 6.41
20 | N#Cc1cccc(Oc2cccc(C34CCC(CCOCC(=O)O)(CC3)OC4)c2)c1 [Example 107] | 5.73
21 | Cc1nc(-c2ccccc2)c(C23CCC(CCCCC(=O)O)(CC2)CO3)s1 [Example 4, 5-(1-(2-Methyl-4-phenylthiazol-5-yl)-2-oxabicyclo[2.2.2]octan-4-yl)pentanoic acid] | 5.80
22 | O=C(O)CCOCC12CCC(c3cccc(Oc4ccccc4)c3)(CC1)OC2 [Example 5, 3-((1-(3-Phenoxyphenyl)-2-oxabicyclo[2.2.2]octan-4-yl)methoxy)propanoic acid] | 7.10
23 | Cc1nc(-c2cccc(C34CCC(CCOCC(=O)O)(CC3)CO4)c2)no1 [Example 48, 2-(2-(1-(3-(5-Methyl-1,2,4-oxadiazol-3-yl)phenyl)-2-oxabicyclo[2.2.2]octan-4-yl)ethoxy)acetic acid] | 5.17
24 | Cc1ccc(Oc2cccc(C34CCC(CCOCC(=O)O)(CC3)OC4)c2)cc1F [Example 101] | 6.49
25 | CCCC(C)Oc1cccc(C23CCC(CCOCC(=O)O)(CC2)CO3)c1 (racemic) [Example 53, 2-(2-(1-(3-(Pentan-2-yloxy)phenyl)-2-oxabicyclo[2.2.2]octan-4-yl)ethoxy)acetic acid] | 5.99
26 | O=C(O)[C@@H]1C[C@@H]1CCC12CCC(c3cccc(Oc4ccccc4)c3)(CC1)OC2 (racemic) [Example 32, Cis-2-(2-(1-(3-phenoxyphenyl)-2-oxabicyclo[2.2.2]octan-4-yl)ethyl)cyclopropanecarboxylic acid] | 6.24
27 | OCCCCC12CCC(c3cccc(Oc4ccccc4)c3)(CC1)OC2 [Example 57, 4-(1-(3-Phenoxyphenyl)-2-oxabicyclo[2.2.2]octan-4-yl)butan-1-ol] | 5.73
28 | O=C(O)C1CC1CCCC12CCC(c3cccc(Oc4ccccc4)c3)(CC1)OC2 (stereo not shown) [Example 120, 2-(3-(1-(3-Phenoxyphenyl)-2-oxabicyclo[2.2.2]octan-4-yl)propyl) cyclopropane carboxylic acid] | 5.66
